The results in this text go back to US9290536B2, “C4 monomethyl triterpenoid derivatives and methods of use thereof” (Reata Pharmaceuticals, Inc., priority 2011, dated 2016).

The experiment deals with IFNγ-induced NO production in RAW264.7. The experiment can be described thus: Suppression of IFNγ-induced NO production in RAW264.7 mouse macrophages (Griess reagent, normalized to WST-1 cell viability). Format: cell-based. The settings on record: RAW264.7 cells, 2 h pre-treatment with drug (0-200 nM), then IFNγ for 24 h. The method, then:
Nitric Oxide Production and Cell Viability. […] On the next day, cells were pre-treated with DMSO or drug (0-200 nM dose range) for 2 hours, and then treated with recombinant mouse IFNγ (R&D Systems) for 24 hours. Nitric Oxide concentration in media was determined using the Griess reagent system (Promega). Cell viability was determined using WST-1 reagent (Roche). IC50 values were determined based on the suppression of IFNγ induced Nitric Oxide production normalized to cell viability.
A word on the IC50: it is the concentration needed to halve the response being measured. Turning to `CC(=O)OC[C@]12CCC(C)(C)C[C@H]1[C@H]1C(=O)C=C3[C@@]4(C)C=C(C#N)C(=O)[C@@H](C)[C@@H]4CC[C@@]3(C)[C@]1(C)CC2` [TX63546], the IC50 stood at 1 nM.
To `CNC(=O)[C@]12CCC(C)(C)C[C@H]1[C@H]1C(=O)C=C3[C@@]4(C)C=C(C#N)C(=O)[C@@H](C)[C@@H]4CC[C@@]3(C)[C@]1(C)CC2` [TX63824] belongs 1 nM; to `COC(=O)[C@]12CCC(C)(C)C[C@H]1[C@H]1C(=O)C=C3[C@@]4(C)C=C(C(=O)O)C(=O)[C@@H](C)[C@@H]4CC[C@@]3(C)[C@]1(C)CC2` [TX63830], 4.6 nM; to `CC(=O)OC[C@]12CCC(C)(C)C[C@H]1[C@@]1(O)C(=O)C=C3[C@@]4(C)C=C(C#N)C(=O)[C@@H](C)[C@@H]4CC[C@@]3(C)[C@]1(C)CC2` [TX63909], 1.4 nM.
To `C[C@@H]1C(=O)C(C#N)=C[C@]2(C)C3=CC(=O)[C@@H]4[C@@H]5CC(C)(C)CC[C@]5(c5nnco5)CC[C@@]4(C)[C@]3(C)CC[C@@H]12` [TX63789] belongs 0.6 nM; to `CCNC(=O)CC[C@]12CCC(C)(C)C[C@H]1[C@H]1C(=O)C=C3[C@@]4(C)C=C(C#N)C(=O)[C@@H](C)[C@@H]4CC[C@@]3(C)[C@]1(C)CC2` [TX63892], 0.3 nM; to `C[C@@H]1C(=O)C(C#N)=C[C@]2(C)C3=CC(=O)[C@@H]4[C@@H]5CC(C)(C)CC[C@]5(F)CC[C@@]4(C)[C@]3(C)CC[C@@H]12` [TX63936], 1.1 nM.
Regarding `CCCCCCOC(=O)[C@]12CCC(C)(C)C[C@H]1[C@H]1C(=O)C=C3[C@@]4(C)C=C(C#N)C(=O)[C@@H](C)[C@@H]4CC[C@@]3(C)[C@]1(C)CC2` [TX63821], the IC50 came to 53 nM.
As for `COC(=O)[C@]12CCC(C)(C)C[C@H]1[C@H]1C(=O)C=C3[C@@]4(C)C=CC(=O)[C@@H](C)[C@@H]4CC[C@@]3(C)[C@]1(C)CC2` [TX63832], the figure is 149 nM; as for `CCOC(=O)[C@]12CCC(C)(C)C[C@H]1[C@H]1C(=O)C=C3[C@@]4(C)C=C(C#N)C(=O)[C@@H](C)[C@@H]4CC[C@@]3(C)[C@]1(C)CC2` [TX63820], 1.5 nM.
To `COC(=O)N[C@]12CCC(C)(C)C[C@H]1[C@H]1C(=O)C=C3[C@@]4(C)C=C(C#N)C(=O)[C@@H](C)[C@@H]4CC[C@@]3(C)[C@]1(C)CC2` [TX63693] belongs 1.4 nM.
To `C[C@@H]1C(=O)C(C#N)=C[C@]2(C)C3=CC(=O)[C@@H]4[C@@H]5CC(C)(C)CC[C@]5(NC(=O)CC(F)(F)F)CC[C@@]4(C)[C@]3(C)CC[C@@H]12` [TX63799] belongs 1.8 nM; to `COC(=O)[C@]12CCC(C)(C)C[C@H]1C1=CC[C@@H]3[C@@]4(C)CC(C#N)=C(OC(C)=O)[C@@H](C)[C@@H]4CC[C@@]3(C)[C@]1(C)CC2` [TX63795], more than 200 nM.
Regarding `C[C@@H]1C(=O)C(C#N)=C[C@]2(C)C3=CC(=O)[C@@H]4[C@@H]5CC(C)(C)CC[C@]5(CCC(=O)N5CCOCC5)CC[C@@]4(C)[C@]3(C)CC[C@@H]12` [TX63888], the IC50 was found to be 0.3 nM.
As for `C[C@@H]1C(=O)C(C#N)=C[C@]2(C)[C@H]3CC(=O)[C@@H]4[C@@H]5CC(C)(C)CC[C@]5(CO)CC[C@@]4(C)[C@]3(C)CC[C@@H]12` [TX63839], the figure is 4 nM; as for `CC(=O)O[C@]12CCC(C)(C)C[C@H]1[C@H]1C(=O)C=C3[C@@]4(C)C=C(C#N)C(=O)[C@@H](C)[C@@H]4CC[C@@]3(C)[C@]1(C)CC2` [TX63928], 0.6 nM.
As for `C[C@@H]1C(=O)C(C#N)=C[C@]2(C)C3=CC(=O)[C@@H]4[C@@H]5CC(C)(C)CC[C@]5(C(=O)N5CCCC5)CC[C@@]4(C)[C@]3(C)CC[C@@H]12` [TX63823], the figure is 0.8 nM; as for `COC(=O)[C@]12CCC(C)(C)C[C@H]1C1=CC[C@@H]3[C@@]4(C)C=C(C#N)C(=O)[C@@H](C)[C@@H]4CC[C@@]3(C)[C@]1(C)CC2` [TX63779], 44 nM; as for `COC(=O)CC[C@]12CCC(C)(C)C[C@H]1[C@H]1C(=O)C=C3[C@@]4(C)C=C(C#N)C(=O)[C@@H](C)[C@@H]4CC[C@@]3(C)[C@]1(C)CC2` [TX63867], 1.3 nM.
To `CCNC(=O)[C@]12CCC(C)(C)C[C@H]1[C@H]1C(=O)C=C3[C@@]4(C)C=C(C#N)C(=O)C(C)=C4CC[C@@]3(C)[C@]1(C)CC2` [TX63597] belongs more than 25 nM; to `C[C@@H]1C(=O)C(C#N)=C[C@]2(C)C3=CC(=O)[C@@H]4[C@@H]5CC(C)(C)CC[C@]5(CCC(=O)O)CC[C@@]4(C)[C@]3(C)CC[C@@H]12` [TX63891], 1.3 nM; to `CCOC(=O)[C@]12CCC(C)(C)C[C@H]1[C@@]1(O)C(=O)C=C3[C@@]4(C)C=C(C#N)C(=O)[C@@H](C)[C@@H]4CC[C@@]3(C)[C@]1(C)CC2` [TX63901], 1.3 nM.
With `C[C@@H]1C(=O)C(C#N)=C[C@]2(C)C3=CC(=O)[C@@H]4[C@@H]5CC(C)(C)CC[C@]5(C(=O)N5CCCCC5)CC[C@@]4(C)[C@]3(C)CC[C@@H]12` [TX63880], the IC50 turned out to be 1.6 nM.
As for `C[C@@H]1C(=O)C(C#N)=C[C@]2(C)[C@H]3CC(=O)[C@@H]4[C@@H]5CC(C)(C)CC[C@]5(C#N)CC[C@@]4(C)[C@]3(C)CC[C@@H]12` [TX63817], the figure is 2.6 nM; as for `COC(=O)[C@]12CCC(C)(C)C[C@H]1[C@H]1C(=O)C=C3[C@@]4(C)CC(C#N)=C(O)[C@@H](C)[C@@H]4CC[C@@]3(C)[C@]1(C)CC2` [TX63778], 50 nM; as for `COC(=O)[C@]12CCC(C)(C)C[C@H]1[C@H]1C(=O)C=C3[C@@]4(C)C=C(I)C(=O)[C@@H](C)[C@@H]4CC[C@@]3(C)[C@]1(C)CC2` [TX63833], 88 nM.
As for `CCCCNC(=O)[C@]12CCC(C)(C)C[C@H]1[C@H]1C(=O)C=C3[C@@]4(C)C=C(C#N)C(=O)[C@@H](C)[C@@H]4CC[C@@]3(C)[C@]1(C)CC2` [TX63877], the IC50 turned out to be 1.3 nM.
Turning to `C[C@@H]1C(=O)C(C#N)=C[C@]2(C)C3=CC(=O)[C@@H]4[C@@H]5CC(C)(C)CC[C@]5(NS(C)(=O)=O)CC[C@@]4(C)[C@]3(C)CC[C@@H]12` [TX63621], the IC50 is 0.8 nM.
To `C=C1C(O)=C(C#N)C[C@]2(C)C3=CC(=O)[C@@H]4[C@@H]5CC(C)(C)CC[C@]5(C(=O)OC)CC[C@@]4(C)[C@]3(C)CC[C@@H]12` [TX63910] belongs 304 nM.
Regarding `C[C@@H]1C(=O)C(C#N)=C[C@]2(C)C3=CC(=O)[C@]4(O)[C@@H]5CC(C)(C)CC[C@]5(CO)CC[C@@]4(C)[C@]3(C)CC[C@@H]12` [TX63908], the IC50 came to 0.6 nM.
As for `CNC(=O)N[C@]12CCC(C)(C)C[C@H]1[C@H]1C(=O)C=C3[C@@]4(C)C=C(C#N)C(=O)[C@@H](C)[C@@H]4CC[C@@]3(C)[C@]1(C)CC2` [TX63876], the figure is 7.3 nM.
As for `CC(=O)N[C@]12CCC(C)(C)C[C@H]1[C@H]1C(=O)C=C3[C@@]4(C)C=C(C#N)C(=O)[C@@H](C)[C@@H]4CC[C@@]3(C)[C@]1(C)CC2` [TX63622], the IC50 is 3.8 nM.
For `COC(=O)C1=C[C@]2(C)C3=CC(=O)[C@@H]4[C@@H]5CC(C)(C)CC[C@]5(C(=O)OC)CC[C@@]4(C)[C@]3(C)CC[C@H]2[C@H](C)C1=O` [TX63788], the IC50 is 33.5 nM.
